The values that follow are results of earlier work, collected in patent US11833161B2, “Compositions and methods for treatment of skin infections” (priority 2015, dated 2023).

One data set deals with warts (verrucae). The settings on record: one case, 2 large mosaic verruca; previous treatments by 2 podiatrists and a dermatologist over 14 months.
The test system of the next data set is cutaneous warts. The note with it: meta-analysis of trials, topical treatment of cutaneous warts; range in brackets.

For `CN/C(=N/CCSCc1nc[nH]c1C)NC#N` [cimetidine], in the data set with warts (verrucae), the “outcome of previous treatments in the difficult case” value is “unsuccessful”.
For `O=C(O)c1ccccc1O` [salicylic acid], the cure rate with cutaneous warts is recorded as 52% (0-87%).
As for Vitamin A, the “outcome of previous treatments in the difficult case” value in the data set with warts (verrucae) is listed as “unsuccessful”.
